Results from US8772480B2, “Inhibitors of PI3 kinase and/or mTOR” (priority 2009, dated 2014).

Experiments:
Format in all cases: biochemical
[1] = target: ProfilerPro Kinase Selectivity Assay Kit kinases (Homo sapiens, UniProt O75116); settings: ROCK2; 1 μM compound concentration
[2] = target: ProfilerPro Kinase Selectivity Assay Kit kinases (Homo sapiens, UniProt O75582); settings: MSK1; 1 μM compound concentration
[3] = target: ProfilerPro Kinase Selectivity Assay Kit kinases (Homo sapiens, UniProt P00519); settings: ABL; 1 μM compound concentration
[4] = target: ProfilerPro Kinase Selectivity Assay Kit kinases (Homo sapiens, UniProt P04049); settings: cRAF; 1 μM compound concentration
[5] = target: ProfilerPro Kinase Selectivity Assay Kit kinases (Homo sapiens, UniProt P06213); settings: INSR; 1 μM compound concentration
[6] = target: ProfilerPro Kinase Selectivity Assay Kit kinases (Homo sapiens, UniProt P06239); settings: LCK; 1 μM compound concentration
Chain of ProfilerPro Kinase Selectivity Assay Kit kinases (Homo sapiens, UniProt P06239) (P06239 2-509 limits assumed): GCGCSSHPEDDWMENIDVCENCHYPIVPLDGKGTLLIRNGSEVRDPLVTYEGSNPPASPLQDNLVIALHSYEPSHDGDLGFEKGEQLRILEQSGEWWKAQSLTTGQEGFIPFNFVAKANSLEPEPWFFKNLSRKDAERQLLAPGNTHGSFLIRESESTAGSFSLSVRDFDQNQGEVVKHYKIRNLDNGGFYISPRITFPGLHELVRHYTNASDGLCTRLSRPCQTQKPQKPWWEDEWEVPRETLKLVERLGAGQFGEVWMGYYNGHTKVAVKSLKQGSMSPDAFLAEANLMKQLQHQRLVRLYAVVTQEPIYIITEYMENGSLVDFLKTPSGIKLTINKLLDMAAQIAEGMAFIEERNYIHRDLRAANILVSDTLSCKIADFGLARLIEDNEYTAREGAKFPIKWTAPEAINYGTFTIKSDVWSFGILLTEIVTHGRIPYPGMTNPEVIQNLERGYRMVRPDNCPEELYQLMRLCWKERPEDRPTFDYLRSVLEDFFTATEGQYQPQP

[7] = target: ProfilerPro Kinase Selectivity Assay Kit kinases (Homo sapiens, UniProt P06241); settings: FYN; 1 μM compound concentration
Chain of ProfilerPro Kinase Selectivity Assay Kit kinases (Homo sapiens, UniProt P06241) (P06241 2-537 limits assumed): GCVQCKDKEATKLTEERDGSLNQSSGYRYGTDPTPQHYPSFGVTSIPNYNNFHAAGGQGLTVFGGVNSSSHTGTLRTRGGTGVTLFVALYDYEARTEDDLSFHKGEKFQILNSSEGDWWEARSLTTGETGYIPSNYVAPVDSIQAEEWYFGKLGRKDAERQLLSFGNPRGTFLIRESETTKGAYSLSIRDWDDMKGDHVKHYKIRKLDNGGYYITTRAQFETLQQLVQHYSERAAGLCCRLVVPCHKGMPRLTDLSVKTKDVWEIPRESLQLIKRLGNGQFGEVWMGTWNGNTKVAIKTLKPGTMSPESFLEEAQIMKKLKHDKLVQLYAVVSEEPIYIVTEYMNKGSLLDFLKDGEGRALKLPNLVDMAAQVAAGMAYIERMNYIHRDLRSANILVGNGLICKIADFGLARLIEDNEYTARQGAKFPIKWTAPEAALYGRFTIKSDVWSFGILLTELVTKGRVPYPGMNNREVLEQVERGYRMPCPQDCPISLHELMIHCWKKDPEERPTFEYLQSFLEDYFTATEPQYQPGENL

[8] = target: ProfilerPro Kinase Selectivity Assay Kit kinases (Homo sapiens, UniProt P07948); settings: LYN; 1 μM compound concentration
[9] = target: ProfilerPro Kinase Selectivity Assay Kit kinases (Homo sapiens, UniProt P08581); settings: cMET; 1 μM compound concentration
[10] = target: ProfilerPro Kinase Selectivity Assay Kit kinases (Homo sapiens, UniProt P11362); settings: FGFR1; 1 μM compound concentration
Chain of ProfilerPro Kinase Selectivity Assay Kit kinases (Homo sapiens, UniProt P11362) (P11362 22-822 limits assumed): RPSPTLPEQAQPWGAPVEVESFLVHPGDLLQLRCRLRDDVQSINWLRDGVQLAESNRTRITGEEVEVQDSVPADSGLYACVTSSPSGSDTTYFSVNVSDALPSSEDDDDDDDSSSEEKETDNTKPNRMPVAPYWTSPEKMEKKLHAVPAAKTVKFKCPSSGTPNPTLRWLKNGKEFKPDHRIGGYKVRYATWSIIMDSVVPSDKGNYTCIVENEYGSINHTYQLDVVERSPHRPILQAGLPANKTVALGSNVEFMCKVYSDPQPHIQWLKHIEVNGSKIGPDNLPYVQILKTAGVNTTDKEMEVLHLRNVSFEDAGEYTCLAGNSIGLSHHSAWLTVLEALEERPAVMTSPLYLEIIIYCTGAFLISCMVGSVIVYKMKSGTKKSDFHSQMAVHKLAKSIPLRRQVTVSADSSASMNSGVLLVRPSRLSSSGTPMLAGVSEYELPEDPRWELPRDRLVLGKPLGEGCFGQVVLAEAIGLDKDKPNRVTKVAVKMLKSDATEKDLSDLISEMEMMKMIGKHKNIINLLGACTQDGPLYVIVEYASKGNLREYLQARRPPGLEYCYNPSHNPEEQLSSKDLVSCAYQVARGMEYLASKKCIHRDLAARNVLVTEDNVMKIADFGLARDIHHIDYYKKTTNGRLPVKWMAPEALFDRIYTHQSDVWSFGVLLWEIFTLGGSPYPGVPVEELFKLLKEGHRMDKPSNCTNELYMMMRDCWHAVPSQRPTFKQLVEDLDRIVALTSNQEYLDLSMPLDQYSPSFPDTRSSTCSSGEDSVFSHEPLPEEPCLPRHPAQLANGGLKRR

[11] = target: ProfilerPro Kinase Selectivity Assay Kit kinases (Homo sapiens, UniProt P12931); settings: SRC; 1 μM compound concentration
Chain of ProfilerPro Kinase Selectivity Assay Kit kinases (Homo sapiens, UniProt P12931) (P12931 2-536 limits assumed): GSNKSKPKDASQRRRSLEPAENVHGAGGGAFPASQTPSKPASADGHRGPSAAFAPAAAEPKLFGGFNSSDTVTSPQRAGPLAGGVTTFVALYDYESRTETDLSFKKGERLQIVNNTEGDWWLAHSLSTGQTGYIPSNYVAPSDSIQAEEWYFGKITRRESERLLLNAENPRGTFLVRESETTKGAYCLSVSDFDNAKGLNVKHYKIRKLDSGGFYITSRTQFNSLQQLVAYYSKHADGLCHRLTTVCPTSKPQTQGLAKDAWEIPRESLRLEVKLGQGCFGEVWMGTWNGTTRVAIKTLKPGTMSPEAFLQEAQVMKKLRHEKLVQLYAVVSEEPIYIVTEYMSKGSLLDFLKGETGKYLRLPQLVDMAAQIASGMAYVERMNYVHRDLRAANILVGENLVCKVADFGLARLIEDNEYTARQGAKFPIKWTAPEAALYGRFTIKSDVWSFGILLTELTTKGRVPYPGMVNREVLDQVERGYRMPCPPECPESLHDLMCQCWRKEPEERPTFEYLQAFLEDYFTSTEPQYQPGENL

[12] = target: ProfilerPro Kinase Selectivity Assay Kit kinases (Homo sapiens, UniProt P23443); settings: p70S6K; 1 μM compound concentration
[13] = target: ProfilerPro Kinase Selectivity Assay Kit kinases (Homo sapiens, UniProt P24941); settings: CDK2; 1 μM compound concentration
[14] = target: ProfilerPro Kinase Selectivity Assay Kit kinases (Homo sapiens, UniProt P28482); settings: ERK2; 1 μM compound concentration
Chain of ProfilerPro Kinase Selectivity Assay Kit kinases (Homo sapiens, UniProt P28482) (P28482 2-360 limits assumed): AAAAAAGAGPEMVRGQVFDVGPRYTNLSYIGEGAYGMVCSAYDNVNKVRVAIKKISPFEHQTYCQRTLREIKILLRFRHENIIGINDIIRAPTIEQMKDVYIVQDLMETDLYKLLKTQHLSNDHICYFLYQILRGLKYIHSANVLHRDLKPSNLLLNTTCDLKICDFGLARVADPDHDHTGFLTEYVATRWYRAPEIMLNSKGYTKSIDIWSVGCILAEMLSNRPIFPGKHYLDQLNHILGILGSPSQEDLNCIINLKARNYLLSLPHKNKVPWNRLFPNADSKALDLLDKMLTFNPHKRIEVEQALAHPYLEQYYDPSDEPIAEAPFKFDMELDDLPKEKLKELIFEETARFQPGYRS

[15] = target: ProfilerPro Kinase Selectivity Assay Kit kinases (Homo sapiens, UniProt P31749); settings: AKT1; 1 μM compound concentration
[16] = target: ProfilerPro Kinase Selectivity Assay Kit kinases (Homo sapiens, UniProt P31751); settings: AKT2; 1 μM compound concentration
[17] = target: ProfilerPro Kinase Selectivity Assay Kit kinases (Homo sapiens, UniProt P35968); settings: KDR; 1 μM compound concentration
[18] = target: ProfilerPro Kinase Selectivity Assay Kit kinases (Homo sapiens, UniProt P36888); settings: FLT3; 1 μM compound concentration
Chain of ProfilerPro Kinase Selectivity Assay Kit kinases (Homo sapiens, UniProt P36888) (P36888 27-993 limits assumed): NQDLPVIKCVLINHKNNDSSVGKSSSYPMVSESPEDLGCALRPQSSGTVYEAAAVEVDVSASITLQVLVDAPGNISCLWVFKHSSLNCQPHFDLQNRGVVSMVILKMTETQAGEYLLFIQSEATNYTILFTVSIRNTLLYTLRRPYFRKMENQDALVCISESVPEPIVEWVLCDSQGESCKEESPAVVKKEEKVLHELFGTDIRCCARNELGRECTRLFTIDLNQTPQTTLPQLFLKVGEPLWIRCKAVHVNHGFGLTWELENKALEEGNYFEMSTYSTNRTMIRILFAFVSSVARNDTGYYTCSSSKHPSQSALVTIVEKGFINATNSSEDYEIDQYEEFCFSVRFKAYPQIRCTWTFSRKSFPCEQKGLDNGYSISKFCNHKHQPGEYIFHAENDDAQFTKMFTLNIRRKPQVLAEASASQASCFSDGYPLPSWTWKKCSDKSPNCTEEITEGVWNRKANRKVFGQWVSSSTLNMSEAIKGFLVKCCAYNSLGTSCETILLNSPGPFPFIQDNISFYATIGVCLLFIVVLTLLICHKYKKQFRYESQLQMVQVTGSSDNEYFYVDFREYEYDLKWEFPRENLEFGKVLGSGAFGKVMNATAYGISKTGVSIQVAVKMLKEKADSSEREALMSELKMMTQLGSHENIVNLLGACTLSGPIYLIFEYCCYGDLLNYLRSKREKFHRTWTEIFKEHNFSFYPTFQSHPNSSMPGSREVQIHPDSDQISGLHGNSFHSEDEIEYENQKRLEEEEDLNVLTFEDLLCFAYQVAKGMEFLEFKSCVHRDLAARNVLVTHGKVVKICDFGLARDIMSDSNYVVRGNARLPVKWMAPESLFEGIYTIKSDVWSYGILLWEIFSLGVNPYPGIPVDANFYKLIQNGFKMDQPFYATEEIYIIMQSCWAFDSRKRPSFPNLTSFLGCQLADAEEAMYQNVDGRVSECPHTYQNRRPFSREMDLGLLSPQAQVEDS

[19] = target: ProfilerPro Kinase Selectivity Assay Kit kinases (Homo sapiens, UniProt P48730); settings: CK1 delta; 1 μM compound concentration
[20] = target: ProfilerPro Kinase Selectivity Assay Kit kinases (Homo sapiens, UniProt P49137); settings: MAPKAPK2; 1 μM compound concentration
[21] = target: ProfilerPro Kinase Selectivity Assay Kit kinases (Homo sapiens, UniProt P49841); settings: GSK3 beta; 1 μM compound concentration
[22] = target: ProfilerPro Kinase Selectivity Assay Kit kinases (Homo sapiens, UniProt Q13188); settings: MST2; 1 μM compound concentration
[23] = target: ProfilerPro Kinase Selectivity Assay Kit kinases (Homo sapiens, UniProt Q13627); settings: DYRK1a; 1 μM compound concentration
[24] = target: ProfilerPro Kinase Selectivity Assay Kit kinases (Homo sapiens, UniProt Q13976); settings: PKGa2; 1 μM compound concentration
Chain of ProfilerPro Kinase Selectivity Assay Kit kinases (Homo sapiens, UniProt Q13976) (Q13976 2-671 limits assumed): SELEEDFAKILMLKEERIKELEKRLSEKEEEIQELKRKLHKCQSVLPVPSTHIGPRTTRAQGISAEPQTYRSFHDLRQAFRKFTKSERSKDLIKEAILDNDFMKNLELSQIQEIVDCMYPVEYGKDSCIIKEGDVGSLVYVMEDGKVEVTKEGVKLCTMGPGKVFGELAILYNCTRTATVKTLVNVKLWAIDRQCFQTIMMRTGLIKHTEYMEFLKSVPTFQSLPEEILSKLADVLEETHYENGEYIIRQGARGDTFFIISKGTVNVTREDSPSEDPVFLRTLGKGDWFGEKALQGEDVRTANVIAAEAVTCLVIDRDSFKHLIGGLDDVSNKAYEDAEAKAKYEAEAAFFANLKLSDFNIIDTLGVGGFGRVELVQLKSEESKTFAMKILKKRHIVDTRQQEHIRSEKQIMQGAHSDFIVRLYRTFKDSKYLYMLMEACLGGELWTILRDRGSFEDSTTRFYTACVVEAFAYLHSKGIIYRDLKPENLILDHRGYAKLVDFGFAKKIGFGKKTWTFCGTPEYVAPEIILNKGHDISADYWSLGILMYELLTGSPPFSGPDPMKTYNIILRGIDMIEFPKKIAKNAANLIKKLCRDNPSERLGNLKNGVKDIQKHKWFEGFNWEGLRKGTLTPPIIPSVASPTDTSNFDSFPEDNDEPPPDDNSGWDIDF

[25] = target: ProfilerPro Kinase Selectivity Assay Kit kinases (Homo sapiens, UniProt Q15418); settings: RSK1; 1 μM compound concentration
[26] = target: ProfilerPro Kinase Selectivity Assay Kit kinases (Homo sapiens, UniProt Q16539); settings: p38 alpha; 1 μM compound concentration
Chain of ProfilerPro Kinase Selectivity Assay Kit kinases (Homo sapiens, UniProt Q16539) (Q16539 2-360 limits assumed): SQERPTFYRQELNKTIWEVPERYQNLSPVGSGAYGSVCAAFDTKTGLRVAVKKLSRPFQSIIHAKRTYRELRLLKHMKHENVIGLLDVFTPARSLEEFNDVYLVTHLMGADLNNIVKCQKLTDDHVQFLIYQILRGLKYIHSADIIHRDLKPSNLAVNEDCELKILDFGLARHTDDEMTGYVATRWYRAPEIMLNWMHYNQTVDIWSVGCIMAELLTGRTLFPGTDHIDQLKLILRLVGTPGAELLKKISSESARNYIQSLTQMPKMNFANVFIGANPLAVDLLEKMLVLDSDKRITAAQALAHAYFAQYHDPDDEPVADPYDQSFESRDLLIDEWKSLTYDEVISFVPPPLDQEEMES

[27] = target: ProfilerPro Kinase Selectivity Assay Kit kinases (Homo sapiens, UniProt Q16566); settings: CAMK4; 1 μM compound concentration
[28] = target: ProfilerPro Kinase Selectivity Assay Kit kinases (Homo sapiens, UniProt Q8IW41); settings: PRAK; 1 μM compound concentration
[29] = target: ProfilerPro Kinase Selectivity Assay Kit kinases (Homo sapiens, UniProt Q9P0L2); settings: MARK1; 1 μM compound concentration
[30] = target: ProfilerPro Kinase Selectivity Assay Kit kinases (Homo sapiens, UniProt Q9P1W9); settings: PIM2; 1 μM compound concentration
[31] = test system: ProfilerPro Kinase Selectivity Assay Kit kinases; settings: 1 μM compound concentration

POC (Percent of control) ROCK2 [1]	POC (Percent of control) MSK1 [2]	POC (Percent of control) ABL [3]	POC (Percent of control) cRAF [4]	POC (Percent of control) INSR [5]	POC (Percent of control) LCK [6]	POC (Percent of control) FYN [7]	POC (Percent of control) LYN [8]	POC (Percent of control) cMET [9]	POC (Percent of control) FGFR1 [10]	POC (Percent of control) SRC [11]	POC (Percent of control) p70S6K [12]	POC (Percent of control) CDK2 [13]	POC (Percent of control) ERK2 [14]	POC (Percent of control) AKT1 [15]	POC (Percent of control) AKT2 [16]	POC (Percent of control) KDR [17]	POC (Percent of control) FLT3 [18]	POC (Percent of control) CK1 delta [19]	POC (Percent of control) MAPKAPK2 [20]	SMILES	also measured
101 POC	91 POC	107 POC	99 POC	97 POC	101 POC	99 POC	96 POC	102 POC	97 POC	101 POC	89 POC	96 POC	106 POC	102 POC	93 POC	92 POC	95 POC	98 POC	100 POC	COc1ccc(Nc2ncc(CN3CCN(C(C)=O)CC3)cc2-c2nc(C)nc3[nH]cnc23)cn1 [Example 89, 1-(4-((6-(6-methoxypyridin-3-ylamino)-5-(2-methyl-9H-purin-6-yl)pyridin-3-yl)methyl)piperazin-1-yl)ethanone]	POC (Percent of control) GSK3 beta [21]: 100 POC; POC (Percent of control) MST2 [22]: 98 POC; POC (Percent of control) DYRK1a [23]: 88 POC; POC (Percent of control) PKGa2 [24]: 87 POC; POC (Percent of control) RSK1 [25]: 99 POC; POC (Percent of control) p38 alpha [26]: 100 POC; POC (Percent of control) CAMK4 [27]: 109 POC; POC (Percent of control) PRAK [28]: 99 POC; POC (Percent of control) MARK1 [29]: 92 POC; POC (Percent of control) PIM2 [30]: 93 POC; POC (Percent of control) AMPK [31]: 91 POC; POC (Percent of control) CAMK2 [31]: 108 POC; POC (Percent of control) PKC beta2 [31]: 94 POC; POC (Percent of control) TAK1 [31]: 93 POC
101 POC	98 POC	103 POC	101 POC	96 POC	98 POC	104 POC	97 POC	102 POC	99 POC	99 POC	98 POC	96 POC	101 POC	109 POC	96 POC	97 POC	122 POC	97 POC	100 POC	CCc1cnc(Nc2ccc(OC)nc2)c(-c2nc(C)nc3[nH]cnc23)c1 [Example 74, 5-ethyl-N-(6-methoxypyridin-3-yl)-3-(2-methyl-9H-purin-6-yl)pyridin-2-amine]	POC (Percent of control) GSK3 beta [21]: 100 POC; POC (Percent of control) MST2 [22]: 98 POC; POC (Percent of control) DYRK1a [23]: 100 POC; POC (Percent of control) PKGa2 [24]: 92 POC; POC (Percent of control) RSK1 [25]: 100 POC; POC (Percent of control) p38 alpha [26]: 101 POC; POC (Percent of control) CAMK4 [27]: 95 POC; POC (Percent of control) PRAK [28]: 97 POC; POC (Percent of control) MARK1 [29]: 111 POC; POC (Percent of control) PIM2 [30]: 92 POC; POC (Percent of control) AMPK [31]: 100 POC; POC (Percent of control) CAMK2 [31]: 106 POC; POC (Percent of control) PKC beta2 [31]: 94 POC; POC (Percent of control) TAK1 [31]: 98 POC
100 POC	98 POC	99 POC	99 POC	104 POC	98 POC	103 POC	100 POC	103 POC	94 POC	102 POC	98 POC	99 POC	103 POC	106 POC	96 POC	93 POC	112 POC	104 POC	96 POC	COc1ccc(Nc2ncccc2-c2nc(C)nc3[nH]cnc23)cn1 [Example 58, N-(6-methoxypyridin-3-yl)-3-(2-methyl-9H-purin-6-yl)pyridin-2-amine]	POC (Percent of control) GSK3 beta [21]: 101 POC; POC (Percent of control) MST2 [22]: 100 POC; POC (Percent of control) DYRK1a [23]: 93 POC; POC (Percent of control) PKGa2 [24]: 97 POC; POC (Percent of control) RSK1 [25]: 94 POC; POC (Percent of control) p38 alpha [26]: 98 POC; POC (Percent of control) CAMK4 [27]: 95 POC; POC (Percent of control) PRAK [28]: 84 POC; POC (Percent of control) MARK1 [29]: 146 POC; POC (Percent of control) PIM2 [30]: 94 POC; POC (Percent of control) AMPK [31]: 99 POC; POC (Percent of control) CAMK2 [31]: 103 POC; POC (Percent of control) PKC beta2 [31]: 161 POC; POC (Percent of control) TAK1 [31]: 107 POC
